Assay results published in ChEMBL document CHEMBL1158771, “Glaciapyrroles A, B, and C, pyrrolosesquiterpenes from a Streptomyces sp. isolated from an Alaskan marine sediment” (J Nat Prod, 2005).

Legend:
[1] = tested on: B16-F10; experiment: Cytotoxicity against mouse B16F10 cells assessed as reduction of resazurin after 48 hrs by fluorimetry; assay type: functional, cell-based; conditions: B16-F10, 48 h
[2] = tested on: HT-29; experiment: Cytotoxicity against human HT-29 cells assessed as reduction of resazurin after 48 hrs by fluorimetry; assay type: functional, cell-based; conditions: HT-29, 48 h

Question: Which results are given for `CC(=C/C(=O)c1ccc[nH]1)/C=C/[C@H](O)[C@@]1(C)CC[C@H](C(C)(C)O)O1` [GLYCIAPYRROLE A]?
Answer: IC50 [1]: 180 µM; IC50 [2]: 180 µM
